# From patent US20170292959A1, “PLASMIDS COMPRISING INTERNAL RIBOSOMAL ENTRY SITES AND USES THEREOF” (Dana-Farber Cancer Institute, Inc., priority 2014, published 2017)
# Where a SMILES comes first, the peptide text is derived from it. The star is where a group is joined. Cbz = O=C(OCc1ccccc1)*
# How the values were obtained:
# HIF1α = test: Pilot ORF-luciferase stabilization experiment in 293FT cells (Fluc/Rluc); assay type: cell-based, human; conditions: DMOG 1 μM, 24 hours
# Description: (§1) FIGS. 6A-6B depict the pharmacological stabilization of firefly luciferase fusion protein. 293FT cells were transiently transfected with plasmids encoding unfused Fluc (pIRIF) or the indicated ORF-firefly luciferase (Fluc) fusions and then treated for 24 hours with DMOG (1 μM), MG132 (10 μM), or vehicle (DMSO). HIF1α-dPA is a HIF1α variant lacking both prolyl hydroxylation sites (33). Shown for each plasmid are Fluc/Rluc values (FIG. 6A) and Fold change in Fluc/Rluc compared to DMSO treatment (FIG. 6B). Data are mean±SD, n=4.
# (§2) In pilot experiments 293FT embryonic kidney cells grown in multiwell plates were transfected with the ORF-luciferase library (one ORF per well) and treated with the proteasome inhibitor MG132, the hydroxylase inhibitor dimethyloxalylglycine (DMOG), or vehicle. Fluc/Rluc values measured 36 to 48 hours later were stable over a wide range of input plasmid concentrations (FIG. 5).
# endogenous IKZF3 = test: Immunoblot of endogenous protein in myeloma cells; assay type: cell-based, human; conditions: MM1S and L363 cells; pretreated with MG132 or MLN4924
# Source text: (§3) Whole cell extracts were resolved by SDS-polyacrylamide gel electrophoresis, transferred onto a nitrocellulose membrane, and probed with the indicated primary antibodies. Bound antibodies were detected with horseradish peroxidase-conjugated secondary antibodies (Pierce) and enhanced chemiluminescence (ECL) western blotting detection regents (Pierce) or Immobilon western chemiluminescent horseradish peroxidase substrate (Millipore).
# (§4) For cycloheximide assays, cells were pretreated with DMSO or LEN (2 μM) for 1 hour, and then 100 μg/ml cycloheximide (Sigma) was added into the DMEM growth medium.
# endogenous IKZF1 = test: Immunoblot of endogenous protein in leukemia and myeloma cells; assay type: cell-based, human; conditions: U937, MM1S and L363 cells; pretreated with MG132 or MLN4924
# Source text: as §3, §4
# proteasomal substrates = test: Pilot ORF-luciferase stabilization experiment in 293FT cells (Fluc/Rluc); assay type: cell-based, human; conditions: MG132 10 μM, 24 hours
# Description: as §1, §2
# IKZF1 = test: Exogenous IKZF protein level in 293FT cells (Fluc/Rluc ratio, HA immunoblot); assay type: cell-based, human; conditions: 12 hours; for effect on down-regulation of exogenous IKZF1 by lenalidomide: with lenalidomide 2 μM, MLN4924 1 μM or MG132 10 μM
# Description: To verify the change of Fluc/Rluc of ORFs obtained from the 384-well high-throughput screen, each clone was further tested in a 96 well format. […] On the day of transfection 96-well polypropylene plates (Greiner) were used to prepare the transfection mixture. First, a plasmid mixture containing 240 ng of ORF luciferase fusion clone and 480 ng of pcDNA3 was diluted into 120 μl of Opti-MEM reduced serum. Next 14.4 μL of Lipofectamine 2000 was diluted into 120 μl of Opti-MEM reduced serum. 5 minutes later, the plasmid solution was mixed with the diluted Lipofectamine 2000 using a multi-channel pipette. […] 24 hours after transfection, cells were treated with LEN (2 μM) or DMSO in quadruplicate. […] The ratio of FLuc/Rluc was calculated for each well. To determine the change of Fluc/Rluc for each ORF, the averaged Fluc/Rluc of LEN treated wells was divided by that of DMSO treated wells. A 2-tailed Student's t test was performed to determine the statistical significance. P value <0.05 was considered significant.
# as §3
# myeloma = conditions: alone and in combination with lenalidomide; cited from earlier work
# IRF4 mRNA = test: Real-time qPCR; assay type: cell-based, human; conditions: MM1S cells treated with lenalidomide
# Description: Total RNA was extracted using Qiagen RNeasy Mini Kit with on-column DNase digestion. Total RNA was reverse transcribed into first-strand cDNA using AffinityScript QPCR cDNA Synthesis Kit (Agilent) with random primers. Real-time PCR was performed in duplicate using RT2 SYBR Green/ROX qPCR Master Mix (Qiagen) and the Mx3000P QPCR system (Stratagene). Values were averaged to calculate the expression level and normalized against the level of RPS18. PCR primers are as follows: […]
# IRF4 [1] = conditions: at least indirectly; cited from earlier work
# IKZF1 Q146H = IKZF1 Q146H (Homo sapiens, UniProt Q13422, Q146H); conditions: IKZF1 residue Q146 changed to histidine
# Source text: (§5) Human IKZF4 cDNA clone was PCR amplified from ETS clone HsCD00295530 (PlasmID, DF/HCC DNA Resource Core), and then cloned into pDONR223 via BP gateway recombination. Human CRBN, human IKZF1 splicing variant 2 (IKZF1-V2), human IKZF2 splicing variant 2 (IKZF2-V2), human IKZF5 and human IRF4 in pDONR223 entry vectors were obtained from the human ORFeome Collection (DF/HCC DNA Resource Core). IKZF1 splicing variant 1 (IKZF1-V1) cDNA and human IKZF2 splicing variant 1 (IKZF2-V1) cDNA were generated by overlapping PCR and cloned into pDONR223 via BP gateway recombination. IKZF4, IKZF1-V1 and IKZF2-V1 were cloned into pIRIGF via LR gateway recombination. IKZF1/2 chimeras (IKZF12 H1, IKZF12 H2, IKZF12 H3, IKZF12 H4, IKZF21 H5, IKZF21 H6, IKZF21 H7, IKZF2 H8, IKZF121 and IKZF212), IKZF1-V2-Q146H, IKZF1-V2-H176P/L177F, IKZF2-V1-H141Q, IKZF2-V1-P171H/F172L, IKZF1-V1-Q146H, IKZF3-Q147H mutants were generated via overlapping PCR and cloned into pIRIGF via LR gateway recombination. IKZF1-V2, IKZF2-V2, IKZF3, IKZF4, IKZF5 and IRF4 were cloned into plenti-UBC-gate-3xHA-pGK-PUR via LR gateway recombination.
# [2] = target: IKZF2 with the reciprocal change (H141Q) (Homo sapiens, UniProt Q9UKS7, H141Q); conditions: reciprocal change in IKZF2
# Source text: as §5
# C11orf65 = target: T1, C11orf65 (Homo sapiens, UniProt Q8NCR3); test: Exogenous protein level in 293FT cells (Fluc/Rluc ratio, HA tag); assay type: cell-based; conditions: lenalidomide
# T1 construct: expressed in transfected cells; host or cells: 293FT
# T1 sequence (Q8NCR3 1-313): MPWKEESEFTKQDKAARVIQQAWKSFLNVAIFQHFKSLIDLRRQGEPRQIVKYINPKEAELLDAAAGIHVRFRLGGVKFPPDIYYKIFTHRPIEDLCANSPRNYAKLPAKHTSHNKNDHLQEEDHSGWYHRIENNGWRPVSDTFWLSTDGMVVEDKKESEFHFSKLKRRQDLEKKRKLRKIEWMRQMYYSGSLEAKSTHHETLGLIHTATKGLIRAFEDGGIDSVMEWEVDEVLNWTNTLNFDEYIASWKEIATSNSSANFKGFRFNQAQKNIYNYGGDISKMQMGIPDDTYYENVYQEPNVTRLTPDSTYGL
# IKZF4 = target: T2, IKZF4 (Homo sapiens, UniProt Q9H2S9); test: Exogenous IKZF protein level in 293FT cells (Fluc/Rluc ratio, HA immunoblot); assay type: cell-based; conditions: lenalidomide 2 μM, 12 hours
# T2 construct: expressed in transfected cells; host or cells: 293FT
# Description: (§6) To verify the change of Fluc/Rluc of ORFs obtained from the 384-well high-throughput screen, each clone was further tested in a 96 well format. The day before transfection, 293FT cells were seeded into solid opaque 96-well plates (BD biosciences) with 20,000 cells in 100 μl of DMEM culture media per well. On the day of transfection 96-well polypropylene plates (Greiner) were used to prepare the transfection mixture. First, a plasmid mixture containing 240 ng of ORF luciferase fusion clone and 480 ng of pcDNA3 was diluted into 120 μl of Opti-MEM reduced serum. Next 14.4 μL of Lipofectamine 2000 was diluted into 120 μl of Opti-MEM reduced serum. 5 minutes later, the plasmid solution was mixed with the diluted Lipofectamine 2000 using a multi-channel pipette. After 30 minutes, 28 μl of DNA/lipofectamine mixture was added to each well of the 96 well plates seeded with 293FT cells (8 wells for each ORF). […] The ratio of FLuc/Rluc was calculated for each well. […]
# as §3
# IKZF5 = target: T3, IKZF5 (Homo sapiens, UniProt Q9H5V7); test: as above; assay type: cell-based; conditions: lenalidomide 2 μM, 12 hours
# T3 construct: expressed in transfected cells; host or cells: 293FT
# Description: as §6, §3
# IRF4 [3] = target: T4, IRF4 (Homo sapiens, UniProt Q15306); test: Exogenous protein level in 293FT cells (Fluc/Rluc ratio, HA immunoblot); assay type: cell-based; conditions: lenalidomide 2 μM, 12 hours
# T4 construct: expressed in transfected cells; host or cells: 293FT
# Description: as §6, §3
# IRF4 [4] = test: Immunoblot of endogenous protein in myeloma cells; assay type: cell-based, human; conditions: LEN 2 μM
# Source text: as §3
# IKZF3 = target: T5, IKZF3 (Homo sapiens, UniProt Q9UKT9); test: Exogenous IKZF protein level in 293FT cells (Fluc/Rluc ratio, HA immunoblot); assay type: cell-based; conditions: pomalidomide 0.2 μM, 12 hours
# T5 construct: expressed in transfected cells; host or cells: 293FT
# Description: To verify the change of Fluc/Rluc of ORFs obtained from the 384-well high-throughput screen, each clone was further tested in a 96 well format. […] On the day of transfection 96-well polypropylene plates (Greiner) were used to prepare the transfection mixture. First, a plasmid mixture containing 240 ng of ORF luciferase fusion clone and 480 ng of pcDNA3 was diluted into 120 μl of Opti-MEM reduced serum. Next 14.4 μL of Lipofectamine 2000 was diluted into 120 μl of Opti-MEM reduced serum. 5 minutes later, the plasmid solution was mixed with the diluted Lipofectamine 2000 using a multi-channel pipette. […] The ratio of FLuc/Rluc was calculated for each well. To determine the change of Fluc/Rluc for each ORF, the averaged Fluc/Rluc of LEN treated wells was divided by that of DMSO treated wells. A 2-tailed Student's t test was performed to determine the statistical significance. P value <0.05 was considered significant.
# as §3
# [5] = target: cereblon autoubiquitination activity (Homo sapiens, UniProt Q96SW2); conditions: cited from earlier work
# [6] = in vivo; cited from earlier work
# cereblon = cereblon (Homo sapiens, UniProt Q96SW2); conditions: cited from earlier work
# zebrafish = conditions: in vivo; cited from earlier work
# T3 sequence (Q9H5V7 whole entry): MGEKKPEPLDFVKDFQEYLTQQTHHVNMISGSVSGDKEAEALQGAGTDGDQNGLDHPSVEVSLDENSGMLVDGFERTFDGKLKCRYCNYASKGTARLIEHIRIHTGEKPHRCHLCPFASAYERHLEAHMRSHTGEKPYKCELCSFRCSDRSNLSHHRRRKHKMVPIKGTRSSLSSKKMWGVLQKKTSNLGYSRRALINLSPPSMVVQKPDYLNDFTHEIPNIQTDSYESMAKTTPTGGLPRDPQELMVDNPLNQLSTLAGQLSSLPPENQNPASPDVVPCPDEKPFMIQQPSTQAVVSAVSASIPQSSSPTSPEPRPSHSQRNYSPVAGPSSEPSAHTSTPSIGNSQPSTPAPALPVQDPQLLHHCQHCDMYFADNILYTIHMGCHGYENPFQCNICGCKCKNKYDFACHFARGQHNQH
# T2 sequence (Q9H2S9 whole entry): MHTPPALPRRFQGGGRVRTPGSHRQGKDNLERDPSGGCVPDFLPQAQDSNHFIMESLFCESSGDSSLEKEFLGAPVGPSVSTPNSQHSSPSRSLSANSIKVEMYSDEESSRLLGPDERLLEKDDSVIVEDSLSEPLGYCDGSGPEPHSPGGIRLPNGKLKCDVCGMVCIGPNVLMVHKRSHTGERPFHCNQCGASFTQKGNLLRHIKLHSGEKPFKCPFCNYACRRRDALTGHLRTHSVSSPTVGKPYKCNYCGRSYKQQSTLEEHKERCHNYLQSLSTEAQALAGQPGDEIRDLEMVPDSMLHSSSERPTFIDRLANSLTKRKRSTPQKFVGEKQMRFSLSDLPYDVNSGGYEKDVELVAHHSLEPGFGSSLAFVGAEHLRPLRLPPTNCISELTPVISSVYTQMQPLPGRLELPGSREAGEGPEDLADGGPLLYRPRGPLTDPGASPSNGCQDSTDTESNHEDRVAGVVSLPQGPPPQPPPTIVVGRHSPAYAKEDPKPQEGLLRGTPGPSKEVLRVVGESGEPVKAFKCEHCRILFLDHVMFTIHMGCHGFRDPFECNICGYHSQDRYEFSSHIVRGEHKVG
# IKZF2 with the reciprocal change (H141Q), sequence (Q9UKS7 whole entry H141Q): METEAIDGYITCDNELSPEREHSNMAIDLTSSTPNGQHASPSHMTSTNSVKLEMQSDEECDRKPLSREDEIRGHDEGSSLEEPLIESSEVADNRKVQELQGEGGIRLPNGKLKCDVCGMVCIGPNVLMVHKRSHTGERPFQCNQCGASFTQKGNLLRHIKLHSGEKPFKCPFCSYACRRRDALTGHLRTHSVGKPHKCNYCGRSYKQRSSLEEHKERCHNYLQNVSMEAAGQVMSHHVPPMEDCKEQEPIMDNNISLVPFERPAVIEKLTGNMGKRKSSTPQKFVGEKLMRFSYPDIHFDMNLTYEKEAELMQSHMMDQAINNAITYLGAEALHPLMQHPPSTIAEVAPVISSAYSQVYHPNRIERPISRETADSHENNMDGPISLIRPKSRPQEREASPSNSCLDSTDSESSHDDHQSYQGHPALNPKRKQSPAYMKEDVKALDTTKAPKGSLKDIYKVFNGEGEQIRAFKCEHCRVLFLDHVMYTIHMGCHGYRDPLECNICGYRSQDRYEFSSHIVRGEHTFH
# cereblon autoubiquitination activity, sequence (Q96SW2 whole entry): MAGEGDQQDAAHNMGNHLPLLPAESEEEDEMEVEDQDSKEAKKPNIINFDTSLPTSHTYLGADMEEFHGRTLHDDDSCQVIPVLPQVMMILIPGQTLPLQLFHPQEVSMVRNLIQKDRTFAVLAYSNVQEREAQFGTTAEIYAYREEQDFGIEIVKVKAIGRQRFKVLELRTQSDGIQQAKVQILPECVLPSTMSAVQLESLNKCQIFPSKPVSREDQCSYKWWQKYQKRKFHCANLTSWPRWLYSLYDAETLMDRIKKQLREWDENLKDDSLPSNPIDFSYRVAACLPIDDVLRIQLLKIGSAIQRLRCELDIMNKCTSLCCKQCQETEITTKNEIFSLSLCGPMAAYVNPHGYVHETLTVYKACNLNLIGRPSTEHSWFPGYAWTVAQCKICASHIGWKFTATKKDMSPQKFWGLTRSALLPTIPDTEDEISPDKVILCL
# cereblon autoubiquitination activity, sequence (Q16531 whole entry partner): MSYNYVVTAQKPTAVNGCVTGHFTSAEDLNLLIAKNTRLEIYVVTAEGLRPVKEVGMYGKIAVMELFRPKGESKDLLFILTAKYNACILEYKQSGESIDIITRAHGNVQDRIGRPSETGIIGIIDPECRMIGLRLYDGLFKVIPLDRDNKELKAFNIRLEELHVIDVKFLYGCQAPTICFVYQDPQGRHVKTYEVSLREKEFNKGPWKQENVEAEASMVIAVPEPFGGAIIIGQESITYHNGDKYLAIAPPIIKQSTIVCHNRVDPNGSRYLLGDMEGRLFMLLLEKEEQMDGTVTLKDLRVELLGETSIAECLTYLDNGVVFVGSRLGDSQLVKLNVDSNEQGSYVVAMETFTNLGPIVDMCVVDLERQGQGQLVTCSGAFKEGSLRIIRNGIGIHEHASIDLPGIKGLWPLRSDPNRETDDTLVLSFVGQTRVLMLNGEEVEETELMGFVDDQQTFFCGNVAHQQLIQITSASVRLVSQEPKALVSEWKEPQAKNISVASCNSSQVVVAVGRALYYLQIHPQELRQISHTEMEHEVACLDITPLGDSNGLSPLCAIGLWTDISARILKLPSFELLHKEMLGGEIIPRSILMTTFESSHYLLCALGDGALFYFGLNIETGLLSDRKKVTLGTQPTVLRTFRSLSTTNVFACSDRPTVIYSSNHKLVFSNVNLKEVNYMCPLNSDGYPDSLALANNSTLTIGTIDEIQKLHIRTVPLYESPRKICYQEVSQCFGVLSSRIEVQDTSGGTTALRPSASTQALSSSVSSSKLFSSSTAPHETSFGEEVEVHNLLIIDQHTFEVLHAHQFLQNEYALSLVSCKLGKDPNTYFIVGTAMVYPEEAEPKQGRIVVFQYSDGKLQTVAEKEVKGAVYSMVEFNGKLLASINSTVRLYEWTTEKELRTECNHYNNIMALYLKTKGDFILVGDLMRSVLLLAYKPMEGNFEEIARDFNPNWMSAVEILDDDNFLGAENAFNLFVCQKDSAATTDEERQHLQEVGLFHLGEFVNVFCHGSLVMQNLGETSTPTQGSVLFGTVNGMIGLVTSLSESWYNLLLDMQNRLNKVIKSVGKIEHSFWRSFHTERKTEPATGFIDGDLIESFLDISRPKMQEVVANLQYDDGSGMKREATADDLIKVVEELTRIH
# cereblon autoubiquitination activity, sequence (Q13619 whole entry partner): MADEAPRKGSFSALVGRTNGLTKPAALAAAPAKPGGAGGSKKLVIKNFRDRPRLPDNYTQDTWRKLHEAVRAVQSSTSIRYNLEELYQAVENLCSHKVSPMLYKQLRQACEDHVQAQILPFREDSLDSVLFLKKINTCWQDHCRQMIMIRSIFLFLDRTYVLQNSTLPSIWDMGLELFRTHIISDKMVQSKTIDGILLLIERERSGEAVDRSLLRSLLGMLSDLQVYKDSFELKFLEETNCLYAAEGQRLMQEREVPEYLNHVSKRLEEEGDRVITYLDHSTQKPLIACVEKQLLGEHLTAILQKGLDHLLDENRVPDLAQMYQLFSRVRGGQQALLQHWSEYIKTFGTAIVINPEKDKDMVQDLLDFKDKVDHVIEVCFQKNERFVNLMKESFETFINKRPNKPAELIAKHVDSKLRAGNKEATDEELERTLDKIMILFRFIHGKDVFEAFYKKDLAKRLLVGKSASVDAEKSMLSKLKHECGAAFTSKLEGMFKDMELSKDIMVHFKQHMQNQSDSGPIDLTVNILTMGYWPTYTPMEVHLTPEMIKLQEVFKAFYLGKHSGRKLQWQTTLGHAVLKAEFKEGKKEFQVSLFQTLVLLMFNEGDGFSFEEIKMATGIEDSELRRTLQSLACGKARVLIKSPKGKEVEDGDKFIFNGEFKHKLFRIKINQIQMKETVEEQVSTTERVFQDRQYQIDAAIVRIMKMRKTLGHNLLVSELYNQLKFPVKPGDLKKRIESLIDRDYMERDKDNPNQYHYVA
# cereblon autoubiquitination activity, sequence (P62877 whole entry partner): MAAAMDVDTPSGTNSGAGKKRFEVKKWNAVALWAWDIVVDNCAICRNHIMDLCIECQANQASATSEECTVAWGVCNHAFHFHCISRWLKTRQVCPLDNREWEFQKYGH
# cereblon, sequence (Q96SW2 whole entry): as the sequence (Q96SW2 whole entry) above
# cereblon, sequence (Q16531 whole entry partner): as the sequence (Q16531 whole entry partner) above
# cereblon, sequence (Q13619 whole entry partner): as the sequence (Q13619 whole entry partner) above
# cereblon, sequence (P62877 whole entry partner): as the sequence (P62877 whole entry partner) above
# T4 sequence (Q15306 whole entry): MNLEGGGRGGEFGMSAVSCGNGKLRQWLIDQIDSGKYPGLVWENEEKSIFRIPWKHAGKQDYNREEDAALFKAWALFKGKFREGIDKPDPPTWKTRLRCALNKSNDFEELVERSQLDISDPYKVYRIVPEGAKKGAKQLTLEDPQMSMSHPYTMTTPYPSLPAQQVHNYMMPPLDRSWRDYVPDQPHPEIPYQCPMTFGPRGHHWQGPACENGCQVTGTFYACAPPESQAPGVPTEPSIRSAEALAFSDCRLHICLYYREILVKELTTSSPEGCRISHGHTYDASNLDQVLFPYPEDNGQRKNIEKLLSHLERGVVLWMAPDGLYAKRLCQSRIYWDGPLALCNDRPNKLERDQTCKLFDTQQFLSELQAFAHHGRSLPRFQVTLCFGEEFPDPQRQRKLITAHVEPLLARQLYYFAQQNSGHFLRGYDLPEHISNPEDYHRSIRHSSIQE
compound,measurement,setting,value
"COC(=O)CNC(=O)C(=O)OC [DMOG, dimethyloxalylglycine]",stabilization of HIF1α-Fluc fusion (Fluc/Rluc),HIF1α,stabilized
CC(C)C[C@@H](C=O)NC(=O)[C@H](CC(C)C)NC(=O)[C@H](CC(C)C)NC(=O)OCc1ccccc1 [MG132] (Cbz-Leu-Leu-Leu-aldehyde),effect of pretreatment on lenalidomide down-regulation of endogenous IKZF3,endogenous IKZF3,unless the cells were pretreated
same,effect of pretreatment on lenalidomide down-regulation of endogenous IKZF1,endogenous IKZF1,unless the cells were pretreated
same,stabilization of ORF-Fluc fusions (Fluc/Rluc),proteasomal substrates,stabilized many proteasomal substrates
same,effect on down-regulation of exogenous IKZF1 by lenalidomide,IKZF1,blocked
NS(=O)(=O)OC[C@@H]1C[C@@H](n2ccc3c(N[C@H]4CCc5ccccc54)ncnc32)C[C@@H]1O [MLN4924],effect of pretreatment on lenalidomide down-regulation of endogenous IKZF3,endogenous IKZF3,unless the cells were pretreated
same,effect of pretreatment on lenalidomide down-regulation of endogenous IKZF1,endogenous IKZF1,unless the cells were pretreated
same,effect on down-regulation of exogenous IKZF1 by lenalidomide,IKZF1,blocked
CC(C)C[C@H](NC(=O)[C@H](Cc1ccccc1)NC(=O)c1cnccn1)B(O)O [bortezomib],antimyeloma activity,myeloma,has antimyeloma activity
Nc1cccc2c1CN(C1CCC(=O)NC1=O)C2=O (stereo not drawn) [lenalidomide],IRF4 mRNA,IRF4 mRNA,Decreased
same,"IRF4 level, previous studies",IRF4 [1],down-regulates
same,cereblon binding and lenalidomide-induced degradation,IKZF1 Q146H,abrogated
same,sensitivity of IKZF2 mutant to lenalidomide,[2],partially sensitive
same,level of C11orf65 fused to HA epitope tag instead of Fluc,C11orf65,unaffected
same,level of exogenous IKZF4,IKZF4,did not affect
same,level of exogenous IKZF5,IKZF5,did not affect
same,level of exogenous IRF4,IRF4 [3],did not affect
same,"IRF4 level (immunoblot, time course)","IRF4 [4]; KMS34 cells, following loss of IKZF1 and IKZF3",decrease
same,"IRF4 level (immunoblot, time course)","IRF4 [4]; L363 cells, high basal IRF4",unaffected
same,"IRF4 level (immunoblot, time course)","IRF4 [4]; MM1S cells, following loss of IKZF1 and IKZF3",decrease
same,IRF4 level,"IRF4 [4]; three resistant lines (KMS11, RPMI8226, OCImy5)",not down-regulated
Nc1cccc2c1C(=O)N(C1CCC(=O)NC1=O)C2=O (stereo not drawn) [pomalidomide],level of IKZF3 fused to Fluc or HA,IKZF3,downregulation
same,level of IKZF1 fused to Fluc or HA,IKZF1; pomalidomide 0.2 μM,downregulation
O=C1CCC(N2C(=O)c3ccccc3C2=O)C(=O)N1 (stereo not drawn) [thalidomide],effect on cereblon autoubiquitination activity,[5],inhibit
same,teratogenicity,[6],"teratogenicity, manifest as profound limb defects"
same,binding to cereblon,cereblon,bind
same,effect of treatment of zebrafish,zebrafish,caused fin defects
